According to patent US8247439B2, “Jasmonate derivatives, pharmaceutical compositions and methods of use thereof” (Sepal Pharma Ltd., priority 2005, dated 2012):
Blank lines part the entries; values can stand above or below the compound they belong to.

What was measured:
Molt-4 = assay: Cytotoxicity of B3 in Molt-4 (Example 4); format: cell-based; conditions: Homo sapiens; Molt-4, 24 hours, n=12
Protocol: (§1) Measurement of reduction in the number of living cells was determined by the CellTiter 96 Aqueous Non-Radioactive Cell Proliferation Assay (XTT Cell Proliferation Kit assay (Biological industries, Beit-Haemek, Israel)). Upon completion of a given experiment, MTS (a tetrazolium compound) at 333 μg/ml+phenazine methosulfate (at 25 μM) was added to each well of the 96-well plate for 1 hour at 37° C. This allowed for development of a color reaction in which dehydrogenases reduce the MTS in metabolically active cells. Soluble MTS formazan product was measured at a wavelength of 490 nm using a CERES 900 HDI ELISA reader (Bio-Tek Instruments, Inc, Highland Park, Vt.).
(§2) Percentage of Optical density is directly proportional to the number of living cells in culture. Cytotoxicity (%) was calculated in the following way: [(OD of control cells —OD of drug-treated cells)/OD of control cells]×100.
(§3) Mononuclear cells were isolated from peripheral blood of healthy donors and treated as described above. The non-adherent PBL were pre-incubated without PHA and TPA. Molt-4 and PBL cells were seeded in 96-well plates as described above.
(§4) Compound B3 was added at concentration ranging from 0.0025-1 mM for 24 hours. The number of repeats for each experiment is indicated by n. Untreated cells were used as control. […] Optical density and percentage of Cytotoxicity were determined as described above.

[1] = tested on: CLL (PBL, chronic lymphocytic leukemia); assay: Cytotoxicity of B3 in CLL cells (Example 4); format: cell-based; conditions: Homo sapiens, CLL cell, 24 hours, n=14
Protocol: as §1, §2
Cytotoxicity of compound B3 was evaluated in 1) Molt 4 cells (an in-vitro model for transformed cells); 2) PBL (an ex vivo model for normal cells); and 3) PBL CLL—Peripheral blood lymphocytes collected from chronic lymphocytic leukemia patients (an ex vivo model for ex vivo transformed cells). […]
Compound B3 was added at concentration ranging from 0.0025-1 mM for 24 hours. […] Optical density and percentage of Cytotoxicity were determined as described above.

NCI H460 = assay: Cytotoxicity of B3 in NCI H460 (Example 4); format: cell-based; conditions: Homo sapiens; NCI H460, 24 hours, n=3
Protocol: as §1, §2
(§5) Compound B3 was added at concentration ranging from 0.0025-1 mM for 24 hours. The number of repeats for each experiment is indicated by n. Untreated cells were used as control. Compound B3 was prepared as a stock of 100 mM in 100% DMSO and dilutions in medium were prepared as described above. Optical density and percentage of Cytotoxicity were determined as described above.

B16 = assay: Cytotoxicity of B3 in B16 (Example 4); format: cell-based; conditions: Mus musculus; B16, 24 hours, n=6
Protocol: as §1, §2, §5

HTB38 = assay: Cytotoxicity of B3 in HTB38 (Example 4); format: cell-based; conditions: Homo sapiens, HTB-38; HTB38, 24 hours, n=3
Protocol: as §1, §2, §5

LNCaP = assay: Cytotoxicity of B3 in LNCaP (Example 4); format: cell-based; conditions: Homo sapiens, 24 hours, n=4
Protocol: as §1, §2, §5

PBL, healthy donors = assay: Cytotoxicity of B3 in PBL of healthy donors (Example 4); format: cell-based, Human
Protocol: as §1, §2, §3, §4

Fibroblasts = assay: Cytotoxicity of B3 in fibroblasts (Example 4); format: cell-based; conditions: Homo sapiens, Fibroblast, 24 hours, n=2
Protocol: as §1, §2, §5

Molt-4 cell line = assay: Cytotoxicity of different batches of B3 towards Molt-4 (Example 5); format: cell-based, Human
Protocol: as §1, §2
The IC50 values in Molt-4 cells for B3 were 0.06 mM in average. For cytotoxicity evaluation in different cell lines B3-IV was used.

Molt 4 cell line = assay: ATP depletion in Molt-4 (CellTiter-Glo luminescent assay, Example 7); format: cell-based; conditions: Homo sapiens; Molt-4, 1 hr exposure
Protocol: The effect of methyl jasmonate and compound B3 on ATP level depletion is studied in the Molt 4 cell line using ATP kit and luminometer (Cell titer—Glo Luminescent, cell viability assay, Promega, code G7571, Ref.)
Cell preparation: Cells (Molt 4) were seeded in 96-well opaque-walled plates. The number of cells (in a volume of 100 μL/well) was: 5×10^4 cells/well. Control wells contained 100 μL medium without cells (background luminescence) Incubations were performed at 37° C., 6% CO2, using the following culture medium: RPMI 1640, 10% FCS, 2 mM L-Glutamine and penicillin 200 U/ml+200 μg/ml streptomycin or equivalent. For the cell viability assay, cells were incubated for 12 min-24 hr. in the absence or presence of methyl jasmonate or several jasmonate derivatives of the present invention at 0.05-4 mM. Reagent Preparation The CellTiter-Glo® buffer and the lyophilized substrate were thawed and equilibrated to room temperature. The buffer was mixed with the substrate by vortexing for 1 minute. […]
The plates were equilibrated to room temperature [25° C.] for 30 min. […] The plates were allowed to incubate at 25° C. for 10 min in the Luminoskan to stabilize luminescence signal. Results were read through Record luminescence [Thermo-Luminoskan Ascent] or equivalent, with integration time of 2000 m. seconds per well and blanking time 5%. […] Percent of cytotoxicity was determined described above.

[2] = tested on: Molt-4 lymphoblastic leukemia cells; assay: Cytotoxicity of jasmonate derivatives in Molt-4 cells (Example 1, XTT/MTS assay); format: cell-based, Human; conditions: for inhibition at 1 µM / inhibition at 10 µM / inhibition at 100 µM: Homo sapiens, MOLT-4, 24 hours, value (±spread), read-out: Cytotoxicity in Molt-4 cells (% of inhibition compared to control); for inhibition at 1 µM: 0.001 mM; for inhibition at 10 µM: 0.01 mM; for inhibition at 100 µM: 0.1 mM; for Cytotoxic potency compared to methyl jasmonate, first screening: Molt-4, 0.1-1 mM, FIGS. 1A and 1B; for Cytotoxic potency at 0.1 mM, first screening: Molt-4, 0.1 mM; for Cytotoxic potency, second screen: Molt-4, 0.01-0.1 mM, FIG. 2; for Cytotoxic potency compared to methyl jasmonate, third screen: Molt-4, FIG. 3 and Table 1
Protocol: as §1, §2
The cytotoxicity of jasmonate derivatives A1-A6, B1 and B2 was compared to that of the previously studied jasmonate, methyl jasmonate (MJ). The cytotoxicity of each compound was determined in Molt-4-Human acute lymphoblastic leukemia cell-line.
[…] Each experimental point was performed in triplicates. Untreated cells were used as control. The test compounds were prepared as a stock of 100 mM in DMSO. Dilutions were performed in culture medium and DMSO so that the maximal concentration of DMSO in each well was 0.5%. […] Cytotoxicity and optical density were determined as described above.

Molt-4 (leukemia) cells [3] = assay: Cytotoxicity in Molt-4 cells (Example 2, selectivity); format: cell-based; conditions: Homo sapiens, 24 h; Molt-4, one day incubation
Protocol: as §1, §2
(§6) Molt-4 (leukemia) cells (at 2.5×10^4/ml), and normal peripheral blood lymphocytes (PBL, at 2×10^5/ml) were incubated in 96-well plates for one day in the presence of different concentrations of methyl jasmonate, (MJ—disclosed in U.S. Pat. No. 6,469,061), and compounds A3 and A4 of the present invention at concentrations: of 0.001, 0.01, 0.1 and 0.5 mM. In some experiments, PBL were pre-incubated with 0.8 μg/ml phytohemagglutinin (PHA)+5 ng/ml TPA for […], to induce entrance into the cell cycle. These cells proliferate and therefore are similar in that respect to cancer cells, making the comparison more valid. The optical density that represented viable cells was determined as described above.

[4] = tested on: normal peripheral blood lymphocytes (PBL), -PHA/TPA; assay: Cytotoxicity in normal PBL without PHA/TPA (Example 2); format: cell-based, Human; conditions: for IC20 / IC50: Homo sapiens, Lymphocyte, 24 h, PBL -PHA/TPA, one day incubation; for Selective cytotoxic effect: leukemic cells vs normal lymphocytes: Molt-4 vs PBL, FIGS. 4A and 4B
Protocol: as §1, §2, §6

[5] = tested on: normal peripheral blood lymphocytes (PBL), +PHA/TPA; assay: Cytotoxicity in normal PBL pre-incubated with PHA/TPA (Example 2); format: cell-based; conditions: Homo sapiens, Lymphocyte, 24 h, one day incubation
Protocol: as §1, §2, §6

Molt-4 (leukemia) cells [6] = conditions: cited from earlier work
[7] = tested on: normal peripheral blood lymphocytes (PBL), -PHA/TPA; conditions: cited from earlier work
lymphomas = conditions: mice; cited from earlier work

IC50 (Molt 4 cell line): 500 µM
Structure (SMILES): CC/C=C\CC1C(=O)CCC1CCOC(=O)CC1CCC(=O)C1C/C=C\CC (centres unmarked) [Compound B3]
IC50 (Molt-4): 70 µM
IC50 [1]: 250 µM
IC50 (NCI H460): > 1000 µM
IC50 (B16): 700 µM
IC50 (HTB38): > 1000 µM
IC50 (LNCaP): > 1000 µM
IC50 (PBL, healthy donors; Homo sapiens, PBL healthy donors, without PHA/TPA, 24 hours, n=12): 1000 µM
Selective cytotoxicity towards cancer cells (PBL, healthy donors; Molt-4, CLL vs PBL, FIG. 5): exhibits selective cytotoxicity towards cancer cells
IC50 (Fibroblasts): > 500 µM
IC50 (Molt-4 cell line; Homo sapiens, MOLT-4, Molt-4): 60 µM
IC50 (Molt-4 cell line; Molt-4, listed as B3 (IV)): 50 µM
IC50 (Molt-4 cell line; Molt-4, listed as B3 (V)): 80 µM

IC50 (Molt 4 cell line): 500 µM
Structure (SMILES): CC/C=C\CC1C(=O)CCC1CC(=O)OC (centres unmarked) [MJ, methyl jasmonate, reference compound]
inhibition at 1 µM [2]: 6%
inhibition at 10 µM [2]: 5%
inhibition at 100 µM [2]: 17%
IC20 (Molt-4 (leukemia) cells [3]): 30 to 50 µM
IC50 (Molt-4 (leukemia) cells [3]): 100 to 500 µM
IC20 [4]: > 500 µM
IC50 [4]: > 500 µM
IC20 [5]: > 500 µM
IC50 [5]: > 500 µM
IC50 (Molt-4 cell line; Homo sapiens, MOLT-4, Molt-4): 600 µM
Cytotoxicity to Molt-4 cells (previously reported data) (Molt-4 (leukemia) cells [6]): cytotoxic to Molt-4 cells
Toxicity to normal lymphocytes (previously reported data) [7]: almost not toxic to normal lymphocytes
Prevention of development of lymphomas (lymphomas): effective in preventing development of lymphomas in mice

Structure (SMILES): CCCCCC1c2nc(N)sc2CC1CC(=O)N1CCN(C)CC1 (centres unmarked) [Compound A2]
Cytotoxic potency compared to methyl jasmonate, first screening [2]: more potent than methyl jasmonate

Structure (SMILES): CCCCCC1c2nc(NC(=O)c3cnccn3)sc2CC1CC(=O)NC1CC1 (centres unmarked) [Compound A1]
Cytotoxic potency at 0.1 mM, first screening [2]: very potent
Cytotoxic potency, second screen [2]: most potent
Cytotoxic potency compared to methyl jasmonate, first screening [2]: more potent than methyl jasmonate

Structure (SMILES): CCCCCC1c2nc(NS(=O)(=O)c3cccc(F)c3)sc2CC1CC(=O)OC (centres unmarked) [Compound A5]
Cytotoxic potency at 0.1 mM, first screening [2]: very potent
Cytotoxic potency compared to methyl jasmonate, first screening [2]: more potent than methyl jasmonate

Structure (SMILES): CCCCCC1c2nc(Nc3ccccc3)sc2CC1CC(=O)NCCOC (centres unmarked) [Compound A6]
Cytotoxic potency at 0.1 mM, first screening [2]: very potent
Cytotoxic potency, second screen [2]: most potent
Cytotoxic potency compared to methyl jasmonate, first screening [2]: more potent than methyl jasmonate

Structure (SMILES): CCCCCC1c2nc(NC(=O)Cc3cccs3)sc2CC1CC(=O)O (centres unmarked) [Compound A3]
Cytotoxic potency at 0.1 mM, first screening [2]: very potent
Cytotoxic potency, second screen [2]: most potent
Cytotoxic potency compared to methyl jasmonate, first screening [2]: more potent than methyl jasmonate
Cytotoxic potency compared to methyl jasmonate, third screen [2]: significantly more potent than methyl jasmonate
IC20 (Molt-4 (leukemia) cells [3]): 10 µM
IC50 (Molt-4 (leukemia) cells [3]): 50 µM
IC20 [4]: 30 µM
IC50 [4]: 250 µM
Selective cytotoxic effect: leukemic cells vs normal lymphocytes [4]: without exerting a substantial effect on normal lymphocytes
IC20 [5]: 70 µM
IC50 [5]: 300 µM

Structure (SMILES): CCCCCC1c2nc(-c3ccccc3)sc2CC1CC(=O)N1CCC(O)CC1 (centres unmarked) [Compound A4]
inhibition at 1 µM [2]: 4%
inhibition at 10 µM [2]: 10%
inhibition at 100 µM [2]: 96%
Cytotoxic potency at 0.1 mM, first screening [2]: very potent
Cytotoxic potency, second screen [2]: most potent
Cytotoxic potency compared to methyl jasmonate, first screening [2]: more potent than methyl jasmonate
Cytotoxic potency compared to methyl jasmonate, third screen [2]: significantly more potent than methyl jasmonate
IC20 (Molt-4 (leukemia) cells [3]): < 10 µM
IC50 (Molt-4 (leukemia) cells [3]): 45 µM
IC20 [4]: < 10 µM
Selective cytotoxic effect: leukemic cells vs normal lymphocytes [4]: without exerting a substantial effect on normal lymphocytes
IC20 [5]: 25 µM
